According to patent publication EP0013144A1, “Substituted diphenylamine derivatives, compositions and herbicidal uses thereof, and processes for their preparation” (ICI AUSTRALIA LIMITED, priority 1978, dated 1980):

Columns and labels:
Type in all cases: in vivo
[1] = tested on: Ryegrass; experiment: Pre-emergence herbicidal activity (Example 31); set-up: key: 0-3 scale: 0 = 0-25% damage, 3 = 75-99% kill, 3+ = 100% kill; conditions: after three weeks
Procedure: (§1) Concentrated formulations of the compounds of the invention were prepared by: • a) in the case of oils and waxy solids, dissolving the compound in toluene containing 7% v/v "Teric" N13 ("Teric" is a Trade MarK and "Teric" N13, a product of ethoxylation of nonylphenol, is available from ICI Australia Limited) and 3% v/v "Kemmat" SC15B ("Kemmat" is a Trade Mark and "Kemmat" SC15B is a formulation of calcium dodecylbenzene sulfonate); or • b) in the case of crystalline solids, adding 5 parts by weight of the compound and 1 part by weight of . ''Dyapol" PT ("Dyapol" is a Trade Mark and "Dyapol" PT is an anionic suspending agent) to 94 parts by weight of an aqueous solution containing 0.25% v/v of "Teric" N8 (a product of ethoxylation of nonylphenol) and ball-milling the mixture to produce a stable suspension. The emulsifiable concentrates and suspensions were then diluted with water to give an aqueous composition of the required concentration suitable for use in the evaluation of the pre-emergence and post-emergence herbicidal activity of the compounds of the invention.
(§2) The pre-emergent herbicidal activity of the compounds of the invention formulated as described in Example 30 was assessed by the following procedure.
(§3) The seeds of the test species were sown in rows 2 cm deep in soil contained in seed boxes. The monocotyledonous plants and the dicotyledonous plants were sprayed with the required quantity of a composition of the invention. Two duplicate seed Doxes were prepared in the same manner but were not sprayed with a composition of the invention and were used for comparison purposes. All the boxes were placed in a glasshouse, lightly watered with an overhead spray to initiate germination and then sub-irrigated as required for optimum plant growth. After three weeks the boxes were removed from the glasshouse and the effect of the treatment was visually assessed. The results are presented in Table 3 where the damage to plants is rated on a scale of from 0 to 3 where 0 represents from 0 to 25% damage, 3 represents 75 to 99% kill and 3+ represents 100% kill.
(§4) A dash (-) means that no experiment was carried out.

[2] = tested on: Wheat; experiment: Pre-emergence herbicidal activity (Example 31); set-up: key: 0-3 scale: 0 = 0-25% damage, 3 = 75-99% kill, 3+ = 100% kill; conditions: after three weeks
Procedure: as §1, §2, §3, §4

[3] = tested on: Ipomea; experiment: Pre-emergence herbicidal activity (Example 31); conditions: after three weeks
Procedure: as §1, §2, §3, §4

[4] = tested on: Mustard; experiment: Pre-emergence herbicidal activity (Example 31); conditions: after three weeks
Procedure: as §1, §2, §3, §4

[5] = tested on: Sunflower; experiment: Pre-emergence herbicidal activity (Example 31); conditions: after three weeks
Procedure: as §1, §2, §3, §4

[6] = tested on: Wheat; experiment: Post-emergence herbicidal activity (Example 32); set-up: key: 0-3 scale: 0 = 0-25% damage, 3 = 75-99% kill, 3+ = 100% kill; conditions: 3 weeks after spraying
Procedure: as §1
(§5) The post-emergent herbicidal activity of the compounds of the invention formulated as described in Example 30 was assessed by the following procedure.
(§6) The seeds of the test species were sown in rows 2 cm deep in soil contained in seed boxes. The monocotyledonous plants and the dicotyledonous plants were sown in separate seed boxes in duplicate. The four seed boxes were placed in a glasshouse, lightly watered with an overhead spray to initiate germination and then sub-irrigated as required for optimum plant growth. After the plants had grown to a height of about 10 to 12.5 cm one box of each of the monocotyledonous plants and the dicotyledonous plants was removed from the glasshouse and sprayed with the required quantity of a composition of the invention. After spraying the boxes were returned to the glasshouse for further 3 weeks and the effects of the treatment was visually assessed by comparison with the untreated controls. The results are presented in Table 4 where the damage to plants is rated on a scale of from 0 to 3 where 0 represents 0 to 25% damage, 3 represents 75 to 99% kill and 3+ represents 100% kill. A dash (-) means that no experiment was carried out.

[7] = tested on: Ipomea; experiment: Post-emergence herbicidal activity (Example 32); conditions: 3 weeks after spraying
Procedure: as §1, §5, §6

[8] = tested on: Japanese millet; experiment: Post-emergence herbicidal activity (Example 32); conditions: 3 weeks after spraying
Procedure: as §1, §5, §6

[9] = tested on: Mustard; experiment: Post-emergence herbicidal activity (Example 32); conditions: 3 weeks after spraying
Procedure: as §1, §5, §6

[10] = tested on: Ryegrass; experiment: Post-emergence herbicidal activity (Example 32); conditions: 3 weeks after spraying
Procedure: as §1, §5, §6

[11] = tested on: Sunflower; experiment: Post-emergence herbicidal activity (Example 32); conditions: 3 weeks after spraying
Procedure: as §1, §5, §6

[12] = tested on: Wild Oats; experiment: Post-emergence herbicidal activity (Example 32); conditions: 3 weeks after spraying
Procedure: as §1, §5, §6

[13] = tested on: Japanese millet; experiment: Pre-emergence herbicidal activity (Example 31); conditions: after three weeks
Procedure: as §1, §2, §3, §4

[14] = tested on: Wild Oats; experiment: Pre-emergence herbicidal activity (Example 31); conditions: 5 kg/ha, after three weeks
Procedure: as §1, §2, §3, §4

| Compound | damage to plants, Rg ([1]; 1 kg/ha) | damage to plants, Rg ([1]; 5 kg/ha) | damage to plants, Wh ([2]; 1 kg/ha) | damage to plants, Wh ([2]; 5 kg/ha) | damage to plants, Ip ([3]; 1 kg/ha) | damage to plants, Ip ([3]; 5 kg/ha) | damage to plants, Ms ([4]; 5 kg/ha) | damage to plants, Sf ([5]; 5 kg/ha) | damage to plants, Wh ([6]; 1 kg/ha) | damage to plants, Wh ([6]; 5 kg/ha) | damage to plants, Ip ([7]; 5 kg/ha) | damage to plants, Jm ([8]; 1 kg/ha) | damage to plants, Jm ([8]; 5 kg/ha) | damage to plants, Ms ([9]; 1 kg/ha) | damage to plants, Ms ([9]; 5 kg/ha) | damage to plants, Rg ([10]; 1 kg/ha) | damage to plants, Rg ([10]; 5 kg/ha) | damage to plants, Sf ([11]; 5 kg/ha) | damage to plants, Ot ([12]; 1 kg/ha) | damage to plants, Ot ([12]; 5 kg/ha) | further results |
| --- | --- | --- | --- | --- | --- | --- | --- | --- | --- | --- | --- | --- | --- | --- | --- | --- | --- | --- | --- | --- | --- |
| CC(Oc1ccc(N(C)c2ccc(C(F)(F)F)cc2[N+](=O)[O-])cc1)C(=O)OC1CCCCC1 (stereo not shown) [Compound 80] | 3 (3 represents 75 to 99% kill) | 3+ (3+ represents 100% kill) | 0 (0 represents from 0 to 25% damage) | 1 | 0 (0 represents from 0 to 25% damage) | 0 (0 represents from 0 to 25% damage) | 0 (0 represents from 0 to 25% damage) | 0 (0 represents from 0 to 25% damage) | 1 | 3 (3 represents 75 to 99% kill) | 0 (0 represents 0 to 25% damage) | 3+ (3+ represents 100% kill) | 3+ (3+ represents 100% kill) | 0 (0 represents 0 to 25% damage) | 0 (0 represents 0 to 25% damage) | 3 (3 represents 75 to 99% kill) | 3+ (3+ represents 100% kill) | 0 (0 represents 0 to 25% damage) | 3+ (3+ represents 100% kill) | 3+ (3+ represents 100% kill) | damage to plants, Ms ([4]; 1 kg/ha): 0 (0 represents from 0 to 25% damage); damage to plants, Sf ([5]; 1 kg/ha): 0 (0 represents from 0 to 25% damage); damage to plants, Ip ([7]; 1 kg/ha): 0 (0 represents 0 to 25% damage); damage to plants, Sf ([11]; 1 kg/ha): 0 (0 represents 0 to 25% damage) |
| CC(Oc1ccc(Nc2ccc(Cl)cc2[N+](=O)[O-])cc1)C(=O)OC1CCCCC1 (stereo not shown) [Compound 79] | 3 (3 represents 75 to 99% kill) | 3 (3 represents 75 to 99% kill) | 0 (0 represents from 0 to 25% damage) | 0 (0 represents from 0 to 25% damage) | 0 (0 represents from 0 to 25% damage) | 0 (0 represents from 0 to 25% damage) | 0 (0 represents from 0 to 25% damage) | 0 (0 represents from 0 to 25% damage) | 2 | 3 (3 represents 75 to 99% kill) | 0 (0 represents 0 to 25% damage) | 3+ (3+ represents 100% kill) | 3+ (3+ represents 100% kill) | 0 (0 represents 0 to 25% damage) | 0 (0 represents 0 to 25% damage) | 3+ (3+ represents 100% kill) | 3 (3 represents 75 to 99% kill) | 0 (0 represents 0 to 25% damage) | 3 (3 represents 75 to 99% kill) | 3 (3 represents 75 to 99% kill) | damage to plants, Jm ([13]; 1 kg/ha): 3 (3 represents 75 to 99% kill); damage to plants, Jm ([13]; 5 kg/ha): 3+ (3+ represents 100% kill); damage to plants, Ms ([4]; 1 kg/ha): 0 (0 represents from 0 to 25% damage); damage to plants, Sf ([5]; 1 kg/ha): 0 (0 represents from 0 to 25% damage); damage to plants, Ip ([7]; 1 kg/ha): 0 (0 represents 0 to 25% damage); damage to plants, Sf ([11]; 1 kg/ha): 0 (0 represents 0 to 25% damage) |
| COC(=O)C(C)Oc1ccc(N(C)c2ccc(C(F)(F)F)cc2)cc1 (stereo not shown) [Compound 14, Methyl 2-[4-(4-trifluoromethyl-N-methylanilino)phenoxy]-propionate] |  |  |  |  |  |  |  |  |  | 0 (0 represents 0 to 25% damage) | 3+ (3+ represents 100% kill) |  | 3 (3 represents 75 to 99% kill) |  | 3+ (3+ represents 100% kill) |  | 0 (0 represents 0 to 25% damage) | 2 |  | 0 (0 represents 0 to 25% damage) |  |
| COC(=O)C(C)Oc1ccc(Nc2ccc(Cl)cc2Cl)cc1 (stereo not shown) [Compound 22] |  | 2 |  | 0 (0 represents from 0 to 25% damage) |  | 0 (0 represents from 0 to 25% damage) | 0 (0 represents from 0 to 25% damage) | 0 (0 represents from 0 to 25% damage) | 1 | 3 (3 represents 75 to 99% kill) |  | 3+ (3+ represents 100% kill) | 3+ (3+ represents 100% kill) | 1 | 3+ (3+ represents 100% kill) | 3+ (3+ represents 100% kill) | 3+ (3+ represents 100% kill) |  | 2 | 3+ (3+ represents 100% kill) | damage to plants, Jm ([13]; 5 kg/ha): 2; damage to plants, Ot [14]: 0 (0 represents from 0 to 25% damage) |
| COC(=O)C(C)Oc1ccc(Nc2ccccc2[N+](=O)[O-])cc1 (stereo not shown) [Compound 25] |  |  |  |  |  |  |  |  |  |  |  |  |  |  |  |  |  |  |  |  | damage to plants, Rg ([1]; 10 kg/ha): 3+ (3+ represents 100% kill); damage to plants, Wh ([2]; 10 kg/ha): 1; damage to plants, Ip ([3]; 10 kg/ha): 0 (0 represents from 0 to 25% damage); damage to plants, Jm ([13]; 10 kg/ha): 3 (3 represents 75 to 99% kill); damage to plants, Ms ([4]; 10 kg/ha): 0 (0 represents from 0 to 25% damage); damage to plants, Sf ([5]; 10 kg/ha): 0 (0 represents from 0 to 25% damage); damage to plants, Wh ([6]; 10 kg/ha): 3 (3 represents 75 to 99% kill); damage to plants, Ip ([7]; 10 kg/ha): 0 (0 represents 0 to 25% damage); damage to plants, Jm ([8]; 10 kg/ha): 3+ (3+ represents 100% kill); damage to plants, Ms ([9]; 10 kg/ha): 0 (0 represents 0 to 25% damage); damage to plants, Rg ([10]; 10 kg/ha): 3+ (3+ represents 100% kill); damage to plants, Sf ([11]; 10 kg/ha): 0 (0 represents 0 to 25% damage); damage to plants, Ot ([12]; 10 kg/ha): 3 (3 represents 75 to 99% kill) |
| COC(=O)C(C)Oc1ccc(Nc2ccc(Br)cc2N)cc1 (stereo not shown) [Compound 32, Methyl 2-[4-(2-amino-4-bromoanilino)phenoxy] propionate] |  | 2 |  | 1 |  | 0 (0 represents from 0 to 25% damage) | 0 (0 represents from 0 to 25% damage) | 0 (0 represents from 0 to 25% damage) |  |  |  |  |  |  |  |  |  |  |  |  | damage to plants, Jm ([13]; 5 kg/ha): 3 (3 represents 75 to 99% kill); damage to plants, Ot [14]: 0 (0 represents from 0 to 25% damage) |
| COC(=O)C(C)Oc1ccc(Nc2ccc(C)cc2[N+](=O)[O-])cc1 (stereo not shown) [Compound 26] | 2 | 3+ (3+ represents 100% kill) | 0 (0 represents from 0 to 25% damage) | 1 | 0 (0 represents from 0 to 25% damage) | 0 (0 represents from 0 to 25% damage) | 0 (0 represents from 0 to 25% damage) | 0 (0 represents from 0 to 25% damage) | 2 | 3 (3 represents 75 to 99% kill) | 0 (0 represents 0 to 25% damage) | 3 (3 represents 75 to 99% kill) | 3+ (3+ represents 100% kill) | 0 (0 represents 0 to 25% damage) | 0 (0 represents 0 to 25% damage) | 3 (3 represents 75 to 99% kill) | 3 (3 represents 75 to 99% kill) | 0 (0 represents 0 to 25% damage) | 1 | 1 | damage to plants, Ms ([4]; 1 kg/ha): 0 (0 represents from 0 to 25% damage); damage to plants, Sf ([5]; 1 kg/ha): 0 (0 represents from 0 to 25% damage); damage to plants, Ip ([7]; 1 kg/ha): 0 (0 represents 0 to 25% damage); damage to plants, Sf ([11]; 1 kg/ha): 0 (0 represents 0 to 25% damage) |
